The nature of the data set: UV absorption spectrum in ethanol (UV-A screening power). Type of data set: physicochemical. As to conditions: UV (EtOH); for E1% / εmax: at λmax.

SMILES strings stand for the structures.

Take `C=C(C)COc1ccc(C=C(C#N)S(=O)(=O)c2ccccc2)cc1` [2-benzenesulfonyl-3-[4-(2-methylallyloxy)phenyl]acrylonitrile]: the λmax turned out to be 345 nm and the E1% is reported as 736.

For `C[Si](C)(C)CCCOc1ccc(/C=C(\C#N)S(=O)(=O)c2ccccc2)cc1` [Example 1, 2-benzenesulfonyl-3-[4-(3-trimethylsilanylpropoxy)phenyl]acrylonitrile], the λmax came to 347 nm, the E1% worked out at 813 and the εmax was 32 500.

For `CC(COc1ccc(/C=C(\C#N)S(=O)(=O)c2ccccc2)cc1)C[Si](C)(O[Si](C)(C)C)O[Si](C)(C)C` (centres unmarked) [Example 2, [4-[2-methyl-3-[1,3,3,3-tetramethyl-1-[(trimethylsilyl)oxy]disiloxanyl]propyloxy]phenyl]-2-(benzenesulfonyl)acrylonitrile], the λmax was found to be 348 nm, the E1% was 632 and the εmax is given as 35 500.

Values taken from patent US7138108B2, “Photoprotective UV-screening compositions comprising (phenylsulfonyl) acrylonitrile-substituted silanes/siloxanes” (L'Oreal, priority 2002, dated 2006).
